In patent publication US20240261418A1, “SOS1 DEGRADING AGENT AND PREPARATION METHOD THEREFOR AND APPLICATION THEREOF” (SHANGHAI LEADINGTAC PHARMACEUTICAL CO. LTD., priority 2021, published 2024):

Target: T1, SOS1 protein (Homo sapiens, UniProt Q07889)
T1 sequence (Q07889 1-1333): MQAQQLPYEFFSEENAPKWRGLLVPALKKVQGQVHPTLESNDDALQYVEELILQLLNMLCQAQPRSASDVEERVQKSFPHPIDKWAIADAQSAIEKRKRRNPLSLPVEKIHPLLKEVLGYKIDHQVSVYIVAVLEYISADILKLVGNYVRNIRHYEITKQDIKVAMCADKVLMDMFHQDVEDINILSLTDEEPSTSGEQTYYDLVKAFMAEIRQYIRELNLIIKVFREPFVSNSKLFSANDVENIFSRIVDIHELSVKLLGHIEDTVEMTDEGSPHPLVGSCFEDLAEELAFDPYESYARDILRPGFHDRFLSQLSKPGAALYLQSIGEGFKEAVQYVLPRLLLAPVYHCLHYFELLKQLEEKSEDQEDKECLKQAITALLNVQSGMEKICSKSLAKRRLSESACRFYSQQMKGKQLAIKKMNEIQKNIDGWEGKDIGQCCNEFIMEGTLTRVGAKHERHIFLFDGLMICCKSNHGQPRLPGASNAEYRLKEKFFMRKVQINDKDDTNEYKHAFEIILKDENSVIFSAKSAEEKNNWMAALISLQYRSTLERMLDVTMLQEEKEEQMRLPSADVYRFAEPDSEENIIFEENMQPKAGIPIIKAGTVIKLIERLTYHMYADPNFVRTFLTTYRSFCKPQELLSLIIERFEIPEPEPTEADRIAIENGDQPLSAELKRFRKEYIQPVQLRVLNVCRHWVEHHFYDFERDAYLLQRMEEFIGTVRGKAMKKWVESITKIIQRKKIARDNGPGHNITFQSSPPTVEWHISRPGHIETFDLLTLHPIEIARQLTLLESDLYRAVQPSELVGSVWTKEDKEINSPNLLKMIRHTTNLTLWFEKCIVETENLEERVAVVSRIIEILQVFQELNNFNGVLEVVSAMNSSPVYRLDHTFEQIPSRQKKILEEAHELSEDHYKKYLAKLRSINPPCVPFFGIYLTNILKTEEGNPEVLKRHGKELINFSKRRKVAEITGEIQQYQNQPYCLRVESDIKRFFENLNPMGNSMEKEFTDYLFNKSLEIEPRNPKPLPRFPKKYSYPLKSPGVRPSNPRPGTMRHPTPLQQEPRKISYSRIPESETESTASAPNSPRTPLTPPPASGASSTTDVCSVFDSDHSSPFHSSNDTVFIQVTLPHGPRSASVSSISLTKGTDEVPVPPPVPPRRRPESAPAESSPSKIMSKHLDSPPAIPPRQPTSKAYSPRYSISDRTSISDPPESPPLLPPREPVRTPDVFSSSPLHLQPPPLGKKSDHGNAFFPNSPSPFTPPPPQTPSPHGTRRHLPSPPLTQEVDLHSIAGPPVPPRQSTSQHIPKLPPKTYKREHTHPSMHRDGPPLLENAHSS
Test: SOS1 degradation assay (Western blot) in SW-620 cells
Format: cell-based
Parameters: host or cells: NCI-H358, A-427, SW-620, DLD-1 (human cancer cell lines)
Conditions: SW-620 (KRAS G12V), 24 h; for DC50: read-out: SW620 (G12V) DC50; for Dmax: read-out: SW620 (G12V) Dmax
Method: Test Example 2: SOS1 Degradation Assay
The degradation of SOS1 by the compounds was investigated on KRAS G12C mutant human non-small cell lung cancer cells NCI-H358 (ATCC or Stem Cell Bank, Chinese Academy of Sciences), KRAS G12D mutant human lung cancer cells A-427 (ATCC), KRAS G12V mutant human colorectal adenocarcinoma cells SW-620 (ATCC), and KRAS G13D mutant human colorectal adenocarcinoma epithelial cells DLD-1 (ATCC). The specific procedures were as follows:
0.95 mL of cells were seeded into each well of a 24-well cell culture plate to achieve a cell density of 5×10^5 cells/well; the cell plate was incubated in an incubator at 37° C. with 5% CO2 overnight. Then 50 μL of the compound solution after dilution was added to each of the wells with the corresponding cells, so that the final concentration of the compound was in a range of 0.03-3000 nM. The final concentration of DMSO was 0.25%.
After dosing, the cell plate was incubated in an incubator at 37° C. with 5% CO2 for 24 h. The cell culture medium in the 24-well plate was removed, and the plate was washed twice with 1×PBS. 180 μL of RIPA (strong) lysis buffer (Beyotime, P0013B) supplemented with 1 mM phenylmethylsulfonyl fluoride, a protease inhibitor mixture (Beyotime, P1008), and a protease phosphatase inhibitor mixture (Beyotime, P1045) was added to lyse adherent NCI-H358 cells at the bottom of the cell culture plate. After the plate was left to stand on ice for 30 min, the protein lysate in each well was transferred to a 1.5 mL centrifuge tube and centrifuged at 15000 g for 20 min at 4° C. […] The concentration of total protein in the cell lysate supernatant was determined using the BCA Protein Quantification Kit (Tiangen, PA115-02). […]
The concentration of total protein in the cell lysate was determined by BCA. […] After the blocking, the PVDF membrane was incubated with an SOS1 primary antibody (Abcam, ab140621) at 4° C. overnight, washed with a TBST buffer (2.4 g of Tris, 8.8 g of NaCl, 1.5 mL of Tween 20, with pH adjusted to 7.4, with the volume brought to 1 L) for 30 min (10 min/time), incubated with a secondary antibody (Abcam, ab205718) at room temperature for 2 h, washed with a TBST buffer for 30 min (10 min/time), and finally incubated with Clarity Western ECL Substrate (BIO-RAD, 170-5061) for 5 min for luminescence and color development, and a chemiluminescence imaging system (Clinx, ChemiScope 6200 Touch) was used for color development and protein mapping. […] The gray correction value for each sample was calculated by the formula: gray correction value=(gray value of target protein/gray value of corresponding internal reference)×103. Then the degradation rate was calculated by comparing the gray correction value with the gray correction value of the control group. […]

SMILES | DC50 [nM] | Dmax [%]
COc1cc2nc(C)nc(N[C@H](C)c3cc(-c4c(Cl)cccc4CN(C)C)cs3)c2cc1[C@H]1CC[C@H](C(=O)N2CCN(CC3CCC4(CC3)CCN(C(=O)c3ccc(Cl)c(N5CCC(=O)NC5=O)c3)CC4)CC2)CC1 [Example 1, 1-(2-chloro-5-(9-((4-((1R,4R)-4-(4-(((R)-1-(4-(2-chloro-6-((dimethylamino)methyl)phenyl)thien-2-yl)ethyl)amino)-7-methoxy-2-methylquinazolin-6-yl)cyclohexane-1-carbonyl)piperazin-1-yl)methyl)-3-azaspiro[5.5]undecane-3-carbonyl)phenyl)dihydropyrimidine-2,4(1H,3H)-dione] | ≤ 50 | 80 to 100
COc1cc2nc(C)nc(N[C@H](C)c3cc(-c4c(Cl)cccc4CN(C)C)cs3)c2cc1[C@H]1CC[C@H](C(=O)N2CCC(CCOCC3CCN(C(=O)c4ccc(Cl)c(N5CCC(=O)NC5=O)c4)CC3)CC2)CC1 [Example 5, 1-(2-chloro-5-(4-((2-(1-((1R,4R)-4-(4-(((R)-1-(4-(2-chloro-6-((dimethylamino)methyl)phenyl)thien-2-yl)ethyl)amino)-7-methoxy-2-methylquinazolin-6-yl)cyclohexane-1-carbonyl)piperidin-4-yl)ethoxy)methyl)piperidine-1-carbonyl)phenyl)dihydropyrimidine-2,4(1H,3H)-dione] | ≤ 50 | 80 to 100
